Source: patent US5079244A, “Substituted 3-aminosydnone imines, pharmaceutical compositions containing same, and process for administering same” (Cassella Aktiengesellschaft, priority 1989, dated 1992)
Structures can show the parent of a compound that is named as a salt.

The molecules below were run on spiral strips of the pulmonary artery of the guinea pig (assay: relaxant effect on potassium-depolarized, CaCl2-contracted spiral strips of the pulmonary artery of the guinea pig). Conditions: Cavia porcellus, 40 mmol/l potassium, contraction by 0.5 mmol/l CaCl2, cumulative addition, average value of 4 to 6 vessel strips, read-out: IC50: concentration of the test substance which inhibits the contraction by 50%.
Procedure: The pharmacological action of the compounds of the formula I was determined by a modified method of Godfraind and Kaba (Arch. Int. Pharmacodyn. Ther. 196, (Suppl ) 35 to 49, 1972) and of Schuman et al. (Naunyn-Schmiedeberg'sArch. Pharmacol. 289, 409 to 418, 1975). In this connection, spiral strips of the pulmonary artery of the guinea pig are depolarized using 40 mmol/l of potassium after equilibration in calcium-free Tyrode solution. An addition of 0.5 mmol/l of CaCl2 then induces a contraction. The relaxant effect of the test substance is determined by cumulative addition in semilogarithmic graduated concentrations. The concentration of the test substance which inhibits the contraction by 50% (=IC50, mol/l) is determined from the concentration-effect curve (abscissa: --log mol/l of test substance, ordinate % inhibition of the maximum contraction, average value of 4 to 6 vessel strips).

IC50	Structure (SMILES)
1100 nM	CC1CCCC(C)N1[n+]1[n-]oc(=N)c1CSc1ccccc1 (stereo not shown) [Example 5, 3-(2,6-Dimethylpiperidino)-4-phenylthiomethylsydnone imine hydrochloride]
700 nM	N=c1o[n-][n+](N2CCOCC2)c1CSCc1ccccc1 [Example 7, 4-Benzylthiomethyl-3-morpholinosydnone imine hydrochloride]
800 nM	CC1CCCC(C)N1[n+]1[n-]oc(=N)c1CSCc1ccccc1 (stereo not shown) [Example 8, 4-Benzylthiomethyl-3-(2,6-dimethylpiperidino)sydnone imine hydrochloride]
2000 nM	CC1CCCC(C)N1[n+]1noc([N-]C(=O)c2ccccc2)c1CSCc1ccccc1 (stereo not shown) [Example 10, N-Benzoyl-4-benzylthiomethyl-3-(2,6-dimethylpiperidino)sydnone imine]
500 nM	CC(CSCc1ccccc1)c1c(=N)o[n-][n+]1N1CCOCC1 (stereo not shown) [Example 12, 4-(2-Benzylthio-1-methylethyl)-3-morpholinosydnone imine hydrochloride]
2000 nM	CC1CCCC(C)N1[n+]1[n-]oc(=N)c1COc1ccccc1 (stereo not shown) [Example 13, 3-(2,6-Dimethylpiperidino)-4-phenoxymethylsydnone imine hydrochloride]
> 300000 nM	CCOC(=O)[N-]c1cn(N2CCOCC2)n[o+]1 [molsidomine, N-ethoxycarbonyl-3-morpholino-sydnone imine, reference compound]
